This passage reports TGI results from PubChem BioAssay (NCI).

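Step 1: Grow cells in 96-well plates. Step 2: Expose to compound for 48 hours at 5 concentrations. Step 3: Interpolate endpoints linearly; if unreached, use highest concentration. TGI denotes the concentration required for complete inhibition of growth.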

Test systems include DU-145 prostate; NCI-H23 lung; K-562 leukemia; MOLT-4 leukemia; HT29 colon; TK-10 renal; SK-MEL-28 melanoma; A498 renal; EKVX NSCLC; MDA-MB-231 breast; NCI/ADR-RES ovarian; HCC-2998 colon; SNB-19 CNS; M14 melanoma; SK-MEL-2 melanoma; SF-295 CNS; MCF7 breast; MDA-MB-435; A549 NSCLC; HL-60(TB) leukemia.
Holding throughout (assay): NCI-60 cell line screen, 48 h

In the case of `COc1ccc(-n2c(=O)n(C)c(=O)n2-c2c(C)c(C)c(C)c(C)c2C)cc1`, the TGI with DU-145 prostate, with NCI-H23 lung, in the experiment on K-562 leukemia, with MOLT-4 leukemia, in the experiment with HT29 colon and in the experiment with TK-10 renal was more than 100 µM in each case. In addition, the TGI with SK-MEL-28 melanoma, in the experiment with A498 renal, with EKVX NSCLC, in the experiment with MDA-MB-231 breast, in the experiment with NCI/ADR-RES ovarian and in the experiment on HCC-2998 colon was more than 100 µM in each case. Besides, the TGI in the experiment with SNB-19 CNS, with M14 melanoma, in the experiment with SK-MEL-2 melanoma, in the experiment on SF-295 CNS, with MCF7 breast and with MDA-MB-435 was more than 100 µM throughout. Further, the TGI with A549 NSCLC is more than 100 µM.
Take `NC(=O)C(=CN1CC(=O)NC1=S)C(N)=O`: the TGI in the experiment with DU-145 prostate, in the experiment on NCI-H23 lung, in the experiment on HL-60(TB) leukemia, in the experiment on MOLT-4 leukemia, in the experiment on HT29 colon and with TK-10 renal was more than 100 µM throughout. Further, the TGI in the experiment on SK-MEL-28 melanoma, in the experiment on A498 renal, in the experiment with EKVX NSCLC, in the experiment on MDA-MB-231 breast, with NCI/ADR-RES ovarian and in the experiment on HCC-2998 colon was more than 100 µM throughout. Besides, the TGI in the experiment on SNB-19 CNS, in the experiment on M14 melanoma, in the experiment with SK-MEL-2 melanoma, in the experiment on SF-295 CNS, with MCF7 breast and with MDA-MB-435 was more than 100 µM each time. Besides, in the experiment with A549 NSCLC, the TGI is more than 100 µM.
`O=C(NC/C(Cl)=C/Cl)Nc1cccc2c1CCCC2`: the TGI in the experiment on DU-145 prostate, in the experiment with NCI-H23 lung, in the experiment on MOLT-4 leukemia, with HT29 colon, in the experiment on TK-10 renal and in the experiment on SK-MEL-28 melanoma was more than 100 µM in each case. Besides, the TGI in the experiment with A498 renal, with EKVX NSCLC, in the experiment with MDA-MB-231 breast, in the experiment on NCI/ADR-RES ovarian, in the experiment on HCC-2998 colon and in the experiment on SNB-19 CNS was more than 100 µM in each case. For the same compound, the TGI in the experiment on M14 melanoma, in the experiment with SK-MEL-2 melanoma, in the experiment with SF-295 CNS, with MCF7 breast, in the experiment on MDA-MB-435 and in the experiment with A549 NSCLC was more than 100 µM in each case.
On to `COc1ccc2c(c1)CC[C@@H]1[C@@H]2CC[C@]2(C)[C@@H](O)/C(=C/c3ccncc3)C[C@@H]12`, for which the TGI in the experiment on DU-145 prostate turned out to be 41 µM; in the experiment on NCI-H23 lung it was 31.7 µM; with HL-60(TB) leukemia it was 39.2 µM; in the experiment on MOLT-4 leukemia it was 26.4 µM; in the experiment with HT29 colon it was 15 µM; in the experiment on TK-10 renal it was 34 µM. Moreover, the TGI turned out to be 35.5 µM in the experiment on SK-MEL-28 melanoma; 38.3 µM in the experiment with A498 renal; 70.6 µM in the experiment on EKVX NSCLC; 32.6 µM in the experiment on MDA-MB-231 breast; 37.2 µM in the experiment on NCI/ADR-RES ovarian; 23.6 µM with HCC-2998 colon. Also, the TGI in the experiment with SNB-19 CNS came out at 51.8 µM; in the experiment with M14 melanoma, 30.4 µM; in the experiment with SK-MEL-2 melanoma, 31.1 µM; in the experiment with SF-295 CNS, 29.4 µM; in the experiment with MCF7 breast, 30.2 µM; in the experiment with MDA-MB-435 it was 27.3 µM. Moreover, the TGI with A549 NSCLC was 41.1 µM.
Take `O=c1cc(-c2ccccc2Cl)[nH]c2cc3c(cc12)OCO3`: the TGI in the experiment on DU-145 prostate was more than 18.8 µM; in the experiment on NCI-H23 lung it was more than 11 µM; in the experiment with HL-60(TB) leukemia, 0.0511 µM; in the experiment with MOLT-4 leukemia, 2.33 µM; with HT29 colon it was 1.46 µM; in the experiment on TK-10 renal, more than 44.7 µM. Besides, the TGI in the experiment with SK-MEL-28 melanoma is more than 63.3 µM; with A498 renal, 4.16 µM; in the experiment on MDA-MB-231 breast it was 0.982 µM; in the experiment on NCI/ADR-RES ovarian, 0.0698 µM; in the experiment with HCC-2998 colon, 0.496 µM; in the experiment with SNB-19 CNS, more than 100 µM. The TGI is 24.3 µM in the experiment with M14 melanoma; 3.74 µM with SK-MEL-2 melanoma; 3.03 µM with SF-295 CNS; more than 100 µM with MCF7 breast; 0.0313 µM in the experiment on MDA-MB-435; more than 16.7 µM in the experiment with A549 NSCLC.
For `CCOC(=O)CCc1c(C)[nH]c2c(C)c3c([nH]c4ccc(Cl)cc43)c(C)c2c1=O`, the TGI in the experiment on DU-145 prostate is more than 100 µM; in the experiment with NCI-H23 lung it was 61.7 µM; with HL-60(TB) leukemia, 22.3 µM; in the experiment with MOLT-4 leukemia, more than 100 µM; in the experiment with HT29 colon, 18.6 µM; in the experiment on TK-10 renal, 37.2 µM. The TGI with SK-MEL-28 melanoma was determined as 46.1 µM; with A498 renal it was 33 µM; in the experiment with EKVX NSCLC, 37.6 µM; in the experiment with MDA-MB-231 breast it was 34.2 µM; in the experiment with NCI/ADR-RES ovarian it was 54 µM; in the experiment on HCC-2998 colon, 30.5 µM. Moreover, the TGI in the experiment on SNB-19 CNS was more than 100 µM; with M14 melanoma, 18.5 µM; with SK-MEL-2 melanoma, 14.4 µM; with SF-295 CNS, 22.1 µM; with MCF7 breast, 37.7 µM; in the experiment with MDA-MB-435, more than 100 µM. Further, the TGI in the experiment with A549 NSCLC came to 23.5 µM.
Take `CCOC(=O)c1c(N2CCOCC2)[nH]c(=O)c(C(c2ccc(Cl)c([N+](=O)[O-])c2)c2c(O)c(C(=O)OCC)c(N3CCOCC3)[nH]c2=O)c1O`: the TGI in the experiment on DU-145 prostate was 55.8 µM; in the experiment with NCI-H23 lung, 98.8 µM; in the experiment on K-562 leukemia it was more than 100 µM; with MOLT-4 leukemia it was 57.8 µM; with HT29 colon it was 42.1 µM; with TK-10 renal, more than 100 µM. Also, the TGI in the experiment on SK-MEL-28 melanoma was more than 100 µM; in the experiment with A498 renal, more than 100 µM; in the experiment with EKVX NSCLC, more than 100 µM; in the experiment on MDA-MB-231 breast, 41.9 µM; with NCI/ADR-RES ovarian, more than 100 µM; in the experiment on HCC-2998 colon, more than 100 µM. Further, the TGI with SNB-19 CNS is 79.3 µM; in the experiment on M14 melanoma it was 58.5 µM; with SF-295 CNS, more than 100 µM; in the experiment with MCF7 breast, 69.6 µM; in the experiment with MDA-MB-435, more than 100 µM; in the experiment on A549 NSCLC it was more than 100 µM.
